Experiments:
L. major = test system: L. major; parameters: method as in PMID 28643086; settings: cited from earlier work
[1] = test system: B. divergens (Germany strain); assay: in vitro growth inhibition assay (SYBR Green I fluorescence), single drug and 1:1 combination; format: cell-based, Babesia divergens
Description: (§1) A microaerophilic stationary-phase culture system was used to maintain Babesia parasite cultures for a long time. Briefly, B. caballi (USDA strain) was grown using equine red blood cells (RBCs) in GIT medium supplemented with 40% equine serum. Theileria equi (USDA strain) was grown in equine RBCs in Medium 199 (M199; Sigma-Aldrich, Tokyo) supplemented with 40% equine serum, and hypoxanthine (MP Biomedicals, Santa Ana, CA, USA) at a final concentration of 13.6 μg/ml was used as a vital supplement. Babesia bovis (Texas strain) and B. bigemina (Argentina strain) were grown in bovine RBCs in M199 medium supplemented with 40% bovine serum. Meanwhile, B. divergens (Germany strain) was grown in bovine RBCs in medium RPMI 1640 (Sigma-Aldrich, Tokyo) supplemented with 40% bovine serum. All media included 60 U/ml penicillin G, 60 μg/ml streptomycin and 0.15 μg/ml amphotericin B (Sigma-Aldrich, St. Louis, MO, USA) to prevent bacterial contamination. The cultures were incubated at 37 °C in a humidified chamber with an atmosphere of 5% CO2, 5% O2 and 90% N2. Babesia microti (Munich strain) was recovered from − 80 °C stock, intraperitoneally injected in two 8-week old female BALB/c mice (Clea Japan, Tokyo, Japan), and the parasitemia was monitored every 2 days. The mice were euthanized using an anesthesia system containing isoflurane after parasitemia reached approximately 30%, and blood was collected by cardiac puncture to initiate the in vivo experiment. The animal experiment was conducted in accordance with the Regulations for Animal Experiments of Obihiro University of Agriculture and Veterinary Medicine, Japan (animal experiment accession number: 290168).
Assays were performed in accordance with the previously described protocol. Briefly, B. bovis, B. bigemina, B. divergens, B. caballi and T. equi cultures were harvested and adjusted to 1% parasitemia with fresh RBCs to start the inhibition assay. The assays were carried out using 96-well microtiter plates where only the 60 inner wells were used, while the peripheral wells were filled with sterile distillate water to reduce evaporation during incubation. In five 96-well plates, a volume of 2.5 µl each of B. bigemina- and B. bovis-iRBCs and 5 µl each of B. divergens-, B. caballi- and T. equi-iRBCs were added to each well in triplicate and mixed with a culture medium containing the drug concentrations to a total volume of 100 µl. Various concentrations of EA, β-CD EA, APSP EA, DA, CF and AQ were dissolved in a culture medium using two-fold dilution. Wells containing DMSO at a final concentration of 0.4% and iRBCs were used as a positive control, while wells with non-infected RBCs and culture medium were used as a negative control. Additionally, a drug combination assay was performed in parallel with the single drug assay at a constant ratio of 1:1, as described previously. […] The plates were incubated in a humidified incubator with 5% CO2, 5% O2 and 90% N2 for 4 days without changing the medium. On day 4, 100 µl of a lysis buffer containing 2 × SG1 was added to each well. The plates were wrapped with aluminum foil to avoid direct light exposure and incubated at room temperature. After 6 h, fluorescence values were measured using a fluorescence spectrophotometer (Fluoroskan Ascent; Thermo LabSystems, Oceanside, CA, USA) with excitation and emission wavelengths of 485 and 518 nm, respectively. The fluorescence data were subtracted from the negative control and used to calculate the IC50. […]

P. falciparum = test system: P. falciparum; parameters: method as in PMID 19015354; settings: cited from earlier work
[2] = test system: Madin-Darby bovine kidney (MDBK) cell line; assay: cytotoxicity assay (CCK-8); format: cell-based
Description: The MDBK cell line was maintained in 75 cm^2 culture flasks with Minimum Essential Medium Eagle (MEM; Gibco, Grand Island, NY, USA), while Dulbecco’s Modified Eagle’s Medium (DMEM; […] Each medium was supplemented with 10% fetal bovine serum, 0.5% penicillin/streptomycin (Gibco), and an additional 1% glutamine. Every 3 to 4 days, the medium was changed, and the cells were incubated until approximately 80% confluent. The cells were free from mycoplasma contamination after being checked by staining with 4,6-diamidino-2-phenylindole dihydrochloride (DAPI; Sigma-Aldrich, St. Louis). The cell detachment from the culture flask was done using TrypLE^TM Express (Gibco) after washing two times with Dulbecco’s phosphate-buffered saline (DPBS). Subsequently, viable cells were counted using a Neubauer Improved C-Chip (NanoEnTek Inc., Seoul, Korea) after staining with 0.4% trypan blue solution. The drug-exposure viability assay was performed in accordance with the recommendation for the Cell Counting Kit-8 (CCK-8; Dojindo, Kumamoto, Japan). Briefly, in a 96-well plate, 100 µl of cells at a density of 5 × 10^4 cells/ml were seeded per well and allowed to attach to the plate for 24 h at 37 °C in a humidified incubator with 5% CO2. Ten microliters of drug diluted two-fold were added to each well to a final concentration of 0.781 to 800 µM in triplicate. Wells with only a culture medium were used as blanks, while wells containing cells and a medium with 0.5% DMSO were used as positive controls. Drug exposure lasted for 24 h. After 24 h, 10 µl of CCK-8 was added, and the plate was further incubated for 3 h. Absorbance was measured at 450 nm using a microplate reader.

[3] = test system: Theileria equi (USDA strain); assay: in vitro growth inhibition assay (SYBR Green I fluorescence), single drug and 1:1 combination; format: cell-based
Description: as §1
(§2) Assays were performed in accordance with the previously described protocol. Briefly, B. bovis, B. bigemina, B. divergens, B. caballi and T. equi cultures were harvested and adjusted to 1% parasitemia with fresh RBCs to start the inhibition assay. The assays were carried out using 96-well microtiter plates where only the 60 inner wells were used, while the peripheral wells were filled with sterile distillate water to reduce evaporation during incubation. In five 96-well plates, a volume of 2.5 µl each of B. bigemina- and B. bovis-iRBCs and 5 µl each of B. divergens-, B. caballi- and T. equi-iRBCs were added to each well in triplicate and mixed with a culture medium containing the drug concentrations to a total volume of 100 µl. Various concentrations of EA, β-CD EA, APSP EA, DA, CF and AQ were dissolved in a culture medium using two-fold dilution. Wells containing DMSO at a final concentration of 0.4% and iRBCs were used as a positive control, while wells with non-infected RBCs and culture medium were used as a negative control. Additionally, a drug combination assay was performed in parallel with the single drug assay at a constant ratio of 1:1, as described previously. […] The plates were incubated in a humidified incubator with 5% CO2, 5% O2 and 90% N2 for 4 days without changing the medium. On day 4, 100 µl of a lysis buffer containing 2 × SG1 was added to each well. The plates were wrapped with aluminum foil to avoid direct light exposure and incubated at room temperature. After 6 h, fluorescence values were measured using a fluorescence spectrophotometer (Fluoroskan Ascent; Thermo LabSystems, Oceanside, CA, USA) with excitation and emission wavelengths of 485 and 518 nm, respectively. The fluorescence data were subtracted from the negative control and used to calculate the IC50. To calculate the degree of association, the growth-inhibition values obtained were entered into CompuSyn software, based on the combination index (CI) values. […] The experiments were repeated three times.

[4] = test system: Babesia bovis (Texas strain); assay: as above; format: cell-based
Description: as §1, §2

SMILES: O=c1oc2c(O)c(O)cc3c(=O)oc4c(O)c(O)cc1c4c23 [EA, Ellagic acid]
- IC50 (L. major): 9.8 μg/ml^e
- concentration that significantly inhibited the growth ([1]; B. divergens, t-test vs control): 0.125 µM
- IC50 ([1]; Babesia divergens, 96 h, B. divergens in vitro culture, 4 days): 5.41 ± 2.8 µM
- IC50 (P. falciparum): 0.33 µM
- EC50 ([2]; Bos taurus, MDBK, 24 h, MDBK cells, 24 h exposure, CCK-8): > 800 µM
- Selective indices MDBK ([2]; EC50 MDBK / IC50 B. bigemina): > 101.3
- Selective indices MDBK ([2]; EC50 MDBK / IC50 B. bovis): > 83.3
- Selective indices MDBK ([2]; EC50 MDBK / IC50 B. divergens): > 148.1
- Selective indices MDBK ([2]; EC50 MDBK / IC50 T. equi): > 106.7
- inhibition of cell viability ([2]; MDBK, 800 µM): did not show any inhibition
- concentration that significantly inhibited the growth ([3]; T. equi, t-test vs control): 0.125 µM
- IC50 ([3]; Theileria equi, 96 h, T. equi in vitro culture, 4 days): 7.46 ± 0.6 µM
- concentration that significantly inhibited the growth ([4]; B. bovis, t-test vs control): 0.078 µM
- IC50 ([4]; Babesia bovis, in Bos taurus, 96 h, B. bovis in vitro culture, 4 days): 9.58 ± 1.47 µM

— PMC6537213, “Ellagic acid microspheres restrict the growth of Babesia and Theileria in vitro and Babesia microti in vivo” (Parasites & Vectors, 2019)
